US6218167A, “Stable biocatalysts for ester hydrolysis” (ThermoGen, Inc., priority 1998, dated 2001)

Legend:
[1] = biological target: T1, Thermus sp. T351 esterase E101, SEQ ID NO.:8 (Thermus filiformis, UniProt A0A0A2WSC9); experiment: biochemical; format: biochemical
T1 construct: T351; native about 135 kD
Excerpt: The specific activity of the enzyme is ten fold greater than observed for E100 with 4-methyl-umbelliferyl butyrate (MUB) as the substrate. E101 is inhibited by PMSF but is insensitive to metal ions or metal ion chelators. […] Table 5 outlines the inhibitory effect of various substances on E101 activity.
Reaction conditions are those described in the general experimental above

[2] = system: Thermus sp. T351 esterase E100; experiment: Inhibition by reaction components of p-nitrophenylproprionate hydrolysis by E100; format: biochemical; details: no concentration stated
Experimental: Esterase activity is measured by monitoring the hydrolysis of p-nitrophenylproprionate (pNP), or in some cases MUB. Each substrate is dissolved in acetonitrile and added to the reaction mixture (100 μM final concentration) which contain 50 mM Tris HCl pH 8.5 adjusted for temperature dependent pH variation. Reactions are thermally equilibrated at 37° C. for 5 minutes prior to initiation of the reaction by addition of 10 μL of enzyme sample, while control reactions substituted equivalent amounts of BSA. The reaction is monitored spectrophotometrically at 405 nm ε=17 mM^-1 cm^-1 for pNP and 360 nm ε=7.9 mM^-1 cm^-1 for MUB.
The rates of enzyme catalyzed hydrolysis are corrected for the spontaneous hydrolysis of the substrate. Protein concentrations are determined by either the absorbance at 280 nm or by Lowery assay. Crude activity is determined by a calorimetric assay based on the hydrolysis of 5-bromo-4-chloro-3-indoyl esters suspended in a 0.7% agar matrix on microtiter plates. A 0.1 mg/ml solution of the indolyl derivative is dissolved in a minimal volume of acetonitrile and added to a warm solution of 0.7% agar containing 0.1M phosphate buffer pH 7.5. 10 μL of this solution is distributed to microtiter plates which, when cooled, could be used with as much as 100 μL of enzyme sample and incubated at temperatures from ambient to >65° C. […]

T1 sequence (A0A0A2WSC9 entry or part of it A175T/N178S/T194S/A197P/K279Q/P281S): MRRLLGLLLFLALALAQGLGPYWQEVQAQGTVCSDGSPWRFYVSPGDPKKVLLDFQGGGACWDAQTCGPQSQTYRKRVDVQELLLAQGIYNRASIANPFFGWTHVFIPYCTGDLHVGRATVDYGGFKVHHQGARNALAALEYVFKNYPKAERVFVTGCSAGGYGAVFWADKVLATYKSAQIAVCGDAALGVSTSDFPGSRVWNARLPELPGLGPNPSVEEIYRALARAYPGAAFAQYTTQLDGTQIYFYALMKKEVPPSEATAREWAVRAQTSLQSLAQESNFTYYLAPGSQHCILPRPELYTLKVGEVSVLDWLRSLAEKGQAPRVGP

SMILES: OCCS [BME, β-mercaptoethanol]
- activity at 10000 µM ([1]; read-out: Relative Rate): 96%

SMILES: OC(CS)C(O)CS (stereo not drawn) [DTT]
- activity at 1000 µM ([1]; read-out: Relative Rate): 98%

SMILES: O=C(O)CN(CCN(CC(=O)O)CC(=O)O)CC(=O)O [EDTA]
- activity at 1000 µM ([1]; read-out: Relative Rate): 93%

SMILES: O=S(=O)(F)Cc1ccccc1 [PMSF]
- Relative Rate ([1]; additive 0.1 mM, None = 100%, substrate p-nitrophenylproprionate): 0%
- Inhibition of E101 (in words) ([1]; no concentration stated): inhibited

SMILES: Cc1ccc(S(=O)(=O)F)cc1 [tosyl fluoride]
- Inhibition of E100 (in words) [2]: effectively inhibited
